SMILES strings stand for the structures.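 All cell lines were grown in 96-well plates and treated with compound for 48 hours. TGI denotes the concentration required for complete inhibition of growth.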

Results on seven compounds are retold here after PubChem BioAssay (NCI).

Some test systems named below: SF-295 CNS; CCRF-CEM leukemia; 786-0 renal; MALME-3M melanoma; NCI-H522 lung; UO-31 renal; A498 renal; ACHN renal; OVCAR-3 ovarian; OVCAR-8 ovarian; NCI-H226 lung; LOX IMVI melanoma; HCT-15 colon; BT-549 breast; MDA-MB-435; SNB-75 CNS; NCI/ADR-RES ovarian; A549 NSCLC; COLO 205 colon; UACC-62 melanoma.
Holding throughout (assay): inhibition of tumour cell growth, NCI panel, 48 h

On to `O=C(O)c1ccccc1CC(Cc1ccccc1)C(=O)O` (configuration not stated), for which the TGI with SF-295 CNS, in the assay with CCRF-CEM leukemia, in the assay on 786-0 renal, in the assay on MALME-3M melanoma, in the assay with NCI-H522 lung and with UO-31 renal was over 100 µM each time. The TGI in the assay on A498 renal, in the assay on ACHN renal, in the assay on OVCAR-3 ovarian, in the assay with OVCAR-8 ovarian, in the assay with NCI-H226 lung and in the assay on LOX IMVI melanoma was over 100 µM in each case. Besides, the TGI in the assay with HCT-15 colon, with BT-549 breast, with MDA-MB-435, in the assay on SNB-75 CNS, in the assay with NCI/ADR-RES ovarian and in the assay on A549 NSCLC was over 100 µM in each case. For the same compound, the TGI in the assay on COLO 205 colon is over 100 µM.
`O=C1NC2=NN=C(c3ccc(Br)cc3)CN2NC12c1ccccc1-c1ccccc12`: the TGI in the assay on SF-295 CNS, with 786-0 renal, with UACC-62 melanoma, with MALME-3M melanoma, in the assay with NCI-H522 lung and with UO-31 renal was over 100 µM throughout. The TGI in the assay with A498 renal, in the assay on ACHN renal, with OVCAR-3 ovarian, in the assay on OVCAR-8 ovarian, in the assay with NCI-H226 lung and in the assay on LOX IMVI melanoma was over 100 µM in each case. Moreover, the TGI in the assay on HCT-15 colon, with BT-549 breast, in the assay on MDA-MB-435, in the assay on SNB-75 CNS, with NCI/ADR-RES ovarian and in the assay on A549 NSCLC was over 100 µM each time. The same compound came in with a TGI in the assay on COLO 205 colon of over 100 µM.
Consider `COc1ccc2c(C(=O)c3c(C)n(CCN4CCOCC4)c4ccccc34)cccc2c1`, for which the TGI with SF-295 CNS is 49 µM; in the assay with CCRF-CEM leukemia, 27.1 µM; with 786-0 renal, over 100 µM; in the assay with UACC-62 melanoma it was over 100 µM; with MALME-3M melanoma, 80.7 µM; with NCI-H522 lung, 50.2 µM. For the same compound, the TGI with UO-31 renal was over 100 µM; with A498 renal, over 100 µM; in the assay with ACHN renal, over 100 µM; in the assay with OVCAR-3 ovarian, 29.6 µM; in the assay with OVCAR-8 ovarian, 59.4 µM; in the assay on NCI-H226 lung it was over 100 µM. Besides, the TGI with LOX IMVI melanoma is 45.4 µM; in the assay with HCT-15 colon, over 100 µM; in the assay with BT-549 breast, 98.1 µM; in the assay with MDA-MB-435 it was 22.8 µM; with NCI/ADR-RES ovarian, 55.9 µM; in the assay on A549 NSCLC, over 100 µM. Besides, the TGI in the assay on COLO 205 colon is 43.4 µM.
For the compound `O=C1c2ccccc2/C=C\C(c2ccccc2)=N/N1c1ccccc1Cl`, the TGI was over 100 µM with SF-295 CNS; over 100 µM with CCRF-CEM leukemia; over 100 µM in the assay with 786-0 renal; 71.4 µM in the assay on MALME-3M melanoma; 35.8 µM in the assay with NCI-H522 lung; 98.8 µM in the assay on UO-31 renal. For the same compound, the TGI in the assay on A498 renal was 71.9 µM; with ACHN renal, over 100 µM; with OVCAR-3 ovarian, over 100 µM; with OVCAR-8 ovarian it was over 100 µM; with NCI-H226 lung, over 100 µM; in the assay on LOX IMVI melanoma, over 100 µM. Further, the TGI with HCT-15 colon was over 100 µM; with BT-549 breast, 28 µM; with MDA-MB-435, 16.8 µM; in the assay with SNB-75 CNS, 97.8 µM; in the assay on NCI/ADR-RES ovarian, 63.5 µM; in the assay on A549 NSCLC it was 60.5 µM.
Take `O=C(Nc1ccc(Cl)c(C(F)(F)F)c1)C(=O)c1c(O)c2ccccc2oc1=O`: the TGI in the assay on SF-295 CNS, with CCRF-CEM leukemia, in the assay with 786-0 renal, in the assay on UACC-62 melanoma, in the assay with MALME-3M melanoma and in the assay on NCI-H522 lung was over 100 µM throughout. The TGI in the assay on UO-31 renal, in the assay with A498 renal, in the assay with ACHN renal, with OVCAR-3 ovarian, in the assay with OVCAR-8 ovarian and with NCI-H226 lung was over 100 µM each time. Moreover, the TGI with LOX IMVI melanoma, in the assay on HCT-15 colon, in the assay with BT-549 breast, in the assay with MDA-MB-435, in the assay with SNB-75 CNS and with NCI/ADR-RES ovarian was over 100 µM throughout. In the assay on A549 NSCLC, the TGI was over 100 µM.
In the case of `O=C1CC(=O)NC(=NN2C(=O)/C(=C/c3ccc(Cl)cc3)N=C2c2ccccc2)N1`, the TGI in the assay on SF-295 CNS is 33 µM; with CCRF-CEM leukemia, 24.8 µM; in the assay with 786-0 renal, 37.5 µM; with UACC-62 melanoma, 25.6 µM; in the assay with MALME-3M melanoma it was 33.4 µM; in the assay with NCI-H522 lung, 23.5 µM. In addition, the TGI in the assay on UO-31 renal stood at 31.7 µM; in the assay with A498 renal it was 31.7 µM; in the assay on ACHN renal, 52.4 µM; with OVCAR-3 ovarian it was 32.6 µM; in the assay with OVCAR-8 ovarian it was 30.5 µM; in the assay on NCI-H226 lung, 31.5 µM. Besides, the TGI was 30.8 µM in the assay on HCT-15 colon; 30.1 µM with BT-549 breast; 29.1 µM in the assay with MDA-MB-435; 60.2 µM in the assay on SNB-75 CNS; 31.8 µM with NCI/ADR-RES ovarian; 30 µM with A549 NSCLC. For the same compound, in the assay on COLO 205 colon, the TGI worked out at 31.5 µM.
As to `O=S(=O)(/N=C(\NO)Nc1ccc(Cl)cc1)c1cc(S(=O)(=O)c2ccccc2)cs1`, the TGI was found to be 32.7 µM in the assay on SF-295 CNS; 43.5 µM in the assay with CCRF-CEM leukemia; 30 µM in the assay with 786-0 renal; 43.1 µM with UACC-62 melanoma; 28.5 µM with MALME-3M melanoma; 25.2 µM in the assay with NCI-H522 lung. The TGI with UO-31 renal amounted to 27.6 µM; in the assay with A498 renal, 28.4 µM; in the assay with ACHN renal it was 42.3 µM; with OVCAR-3 ovarian, 31.1 µM; in the assay on OVCAR-8 ovarian it was 36.7 µM; in the assay on NCI-H226 lung, 51.6 µM. The TGI in the assay on LOX IMVI melanoma is 39 µM; in the assay on HCT-15 colon, 44.3 µM; with BT-549 breast it was 45.7 µM; in the assay on MDA-MB-435, 29.9 µM; with NCI/ADR-RES ovarian, over 100 µM; in the assay with A549 NSCLC, 93.1 µM. This compound also came in with a TGI in the assay with COLO 205 colon of 34.2 µM.
